One series deals with PGE2. In words: Inhibition of PGE2 formation in rabbit articular chondrocytes stimulated with IL-1β (RIA). In kind it is cell-based. The protocol: (§1) a) The inhibitory activity on the formation of NO measured as NO2^− (nitrite) and PGE2 was studied in vitro on culture media of rabbit articular chondrocytes stimulated with the cytokine IL-1β (1 ng/ml) for 48 hours. For the preparation of the chondrocytes, the method described by Berenbaum et al. [FEBS Letters 340, 51-55 (1994)] was followed. Briefly, fragments of cartilage removed aseptically from the articular heads of rabbit shoulder, hip and knee were finely ground and digested at 37° C. in hyaluronidase, trypsin and collagenase solutions, giving, after filtration through sterile gauze and centrifugation at 600×g and suitable dilution with 10% DMEM-FCS 10%, a concentration per well of about 1×10^5 cells. The cells were maintained under these conditions until confluent (about 15 days), the medium being replaced every 3 days. At this point, the test products dissolved in the medium were added to each sample and, after 20 minutes, 350 μl of IL-1β were added, to give a final concentration of 1 ng/ml. The stimulation lasted 48 hours at 37° C. (incubation in air/7% CO2). A nitrite assay was subsequently performed on the cell supernatant, as described by Green et al. [Anal. Biochem. 126, 131-138 (1982)], and of PGE2 by RIA assay. The results obtained are shown in Table 3, in which is given, for a number of the compounds that are the subject of the invention and that are already illustrated in Table 1, the IC50, i.e. the concentration (micromolar) of antagonist capable of inhibiting the formation of nitrites and PGE2 by 50% relative to the control group, i.e. relative to the cells stimulated with IL-1β but without addition of antagonists.

The subject of series [1] is formation of NO measured as NO2^− (nitrite). In words: Inhibition of NO (nitrite) formation in rabbit articular chondrocytes stimulated with IL-1β. In kind it is cell-based. The note with it: for IC50: Oryctolagus cuniculus, Chondrocyte. On the procedure:
as §1

Where [2] appears, read: Oryctolagus cuniculus, Chondrocyte, rabbit articular chondrocytes, IL-1β 1 ng/ml, 48 hours, RIA, read-out: Inhibition % IC50 PGE2.
[3] abbreviates: rabbit articular chondrocytes, IL-1β 1 ng/ml, 48 hours, nitrite in supernatant, read-out: Inhibition % IC50 NO.
Setting [4] is: rabbit articular chondrocytes stimulated with IL-1β.
[5] abbreviates: Oryctolagus cuniculus, Chondrocyte, rabbit articular chondrocytes stimulated with IL-1β, read-out: IC50, formation of PGE2.
Setting [6] is: rabbit articular chondrocytes, IL-1β 1 ng/ml, 48 hours, RIA.

The source of these data is patent publication US20050197331A1, “Novel anti-inflammatory and analgesic heterocyclic amidines that inhibit nitrogen oxide (NO) production” (ROTTAPHARM SPA, priority 2004, published 2005).

As usually defined, the melting point is the temperature of the solid-liquid transition. By IC50 is commonly meant the concentration needed to halve the response being measured.

Counter-ions that a name gives are not always drawn. Like-named read-outs stand apart in the source and are kept apart here.

Consider `CC(=N)Nc1ccc2[nH]c(-c3cccc(C(F)(F)F)c3)nc2c1` (as salt: hydrobromid) [Compound 36, N-[2-(3-trifluoromethylphenyl)benzimidazole-5-yl]acetamidine hydrobromide], for which the melting point lay in the range of 284.3 to 285.4 °C.

Compound `CC(=N)Nc1ccc2[nH]c(-c3ccccc3F)nc2c1` (as salt: hydrobromid) [Compound 38, N-[2-(2-fluorophenyl)benzimidazol-5-yl]acetamidine hydrobromide] yielded a melting point of 266.8 to 269 °C.

`COc1ccc(S(N)(=O)=O)cc1-c1nc2cc(NC(C)=N)ccc2s1` (as salt: hydrochloride) [Compound 13, N-[2-(5-aminosulfonyl-2-methoxyphenyl)benzothiazol-5-yl]acetamidine hydrochloride] registered a melting point of 244 to 248 °C.

The compound `CC(=N)Nc1ccc2[nH]c(-c3ccc(F)cc3)nc2c1` (as salt: hydrochloride) [Compound 19, N-[2-(4-fluorophenyl)benzimidazol-5-yl]acetamidine dihydrochloride] came in with a melting point of 283.7 to 286.3 °C.

`CC(=N)Nc1ccc2[nH]c(-c3ccccc3)nc2c1` (as salt: hydrochloride) [Compound 21, N-(2-phenyl-3H-benzimidazol-5-yl)acetamidine hydrochloride]: the melting point is 164 to 166 °C.

As to `CCCCCc1nc2ccc(NC(C)=N)cc2[nH]1` (as salt: hydrochloride) [Compound 22, N-(2-pentyl-3H-benzimidazol-5-yl)acetamidine dihydrochloride], the melting point was in the range of 276.9 to 278.3 °C.

With `CC(=N)Nc1ccc2[nH]c(-c3ccc[nH]3)nc2c1` (as salt: hydrochloride) [Compound 23, N-[2-(pyrrol-2-yl)-3H-benzimidazol-5-yl]acetamidine dihydrochloride], the melting point was in the range of 318 to 322 °C.

As to `COC(=O)c1ccc(-c2nc3cc(NC(C)=N)ccc3[nH]2)cc1` (as salt: hydrochloride) [Compound 25, Methyl 4-(5-acetimidoylamino-1H-benzimidazol-2-yl)benzoate hydrochloride], the melting point lay within 284 to 288 °C.

Consider `CC(=N)Nc1ccc2nc(-c3ccccc3)ncc2c1` (as salt: hydrochloride) [Compound 27, N-(2-phenylquinazolin-6-yl)acetamidine dihydrochloride], for which the melting point lay within 162 to 168 °C.

`COc1ccccc1-c1nc2cc(NC(C)=N)ccc2n1C` (as salt: hydrochloride) [Compound 43, N-[1-methyl-2-(2-methoxyphenyl)benzimidazol-5-yl]acetamidine dihydrochloride] gave a melting point of 253.1 to 254.7 °C.

`CCCCCc1nc2ccc(NC(C)=N)cc2s1` [Compound 4, N-(2-pentylbenzothiazol-6-yl)acetamidine] showed a melting point of 112.6 to 114.7 °C. Also, the IC50 with PGE2 (setting [2]) is 6.6 µM. For the same compound, in series [1] (rabbit articular chondrocytes stimulated with IL-1β, read-out: IC50, production of NO), the IC50 lay within 3 to 8 µM. In addition, the IC50 in series [1] (setting [3]) was 6.9 µM.

Compound `CC(=N)Nc1ccc2sc(Cc3ccccc3)nc2c1` [Compound 11, N-[2-benzylbenzothiazol-5-yl]acetamidine] gave a melting point of 117.9 to 120 °C. Besides, the IC50 with PGE2 (setting [2]) came out at 7.4 µM. Besides, the IC50 in series [1] (setting [3]) worked out at 15 µM.

As for `CC(=N)Nc1ccc2sc(/C=C/c3ccccc3)nc2c1` [Compound 12, N-[2-styrylbenzothiazol-5-yl]acetamidine], the melting point lay in the range of 90.8 to 91.8 °C. Moreover, the IC50 in the series with PGE2 (setting [2]) came out at 1.3 µM. Further, the “IC50, formation of PGE2” value with PGE2 (setting [4]) is reported as “sub-micromolar”. Also, in series [1] (setting [3]), the IC50 amounted to 88.9 µM. The “inhibiting the production of NO (in words)” value in series [1] (setting [4]) is given as “little activity”.

In the case of `COc1ccc(S(N)(=O)=O)cc1-c1nc2cc(NC(C)=N)ccc2s1` [Compound 13, N-[2-(5-aminosulfonyl-2-methoxyphenyl)benzothiazol-5-yl]acetamidine hydrochloride], in the series with PGE2 (setting [2]), the IC50 was determined as 16.2 µM.

Regarding `CC(=N)Nc1ccc2sc(-c3ccccn3)nc2c1` [Compound 14, N-[2-(2-pyridyl)benzothiazol-5-yl]acetamidine], the melting point lay in the range of 187.2 to 188.9 °C. The concentration for half-maximal inhibition (IC50) with PGE2 (setting [2]) came to 42.5 µM.

Turning to `CC(=N)Nc1ccc2[nH]c(-c3ccc(F)cc3)nc2c1` [Compound 19, N-[2-(4-fluorophenyl)benzimidazol-5-yl]acetamidine dihydrochloride], the IC50 is 0.3 to 0.8 µM in the series with PGE2 (setting [5]), 0.7 µM in the series with PGE2 (setting [2]) and 78 µM in series [1] (setting [3]). Further, the “IC50, formation of PGE2” value in the series with PGE2 (setting [4]) is “sub-micromolar”. Moreover, in series [1] (setting [4]), the “inhibiting the production of NO (in words)” value is “little activity”.

As for `CC(=N)Nc1ccc2[nH]c(-c3ccc(Cl)cc3)nc2c1` [Compound 20, N-[2-(4-chlorophenyl)benzimidazol-5-yl]acetamidine], the melting point fell in the range of 153.6 to 156 °C. In addition, the IC50 in the series with PGE2 (setting [5]) lay within 0.3 to 0.8 µM. The IC50 in the series on PGE2 (setting [2]) was 0.4 µM. For the same compound, in the series on PGE2 (setting [4]), the “IC50, formation of PGE2” value is on record as “sub-micromolar”. Besides, in series [1] (setting [3]), the IC50 worked out at 22.8 µM. Further, in series [1] (setting [4]), the “inhibiting the production of NO (in words)” value was “little activity”.

For `CC(=N)Nc1ccc2[nH]c(-c3ccccc3)nc2c1` [Compound 21, N-(2-phenyl-3H-benzimidazol-5-yl)acetamidine hydrochloride], the results for the IC50 (in the series with PGE2 (setting [5]); with PGE2 (setting [2]); in series [1] (setting [3])) were 0.3 to 0.8 µM, 0.8 µM and 84.5 µM, respectively. Moreover, the “IC50, formation of PGE2” value in the series with PGE2 (setting [4]) was “sub-micromolar”. Moreover, the “inhibiting the production of NO (in words)” value in series [1] (setting [4]) is reported as “little activity”.

As for `CCCCCc1nc2ccc(NC(C)=N)cc2[nH]1` [Compound 22, N-(2-pentyl-3H-benzimidazol-5-yl)acetamidine dihydrochloride], the IC50 worked out at 31.5 µM in the series on PGE2 (setting [2]) and 123 µM in series [1] (setting [3]).

As for `CC(=N)Nc1ccc2[nH]c(-c3ccc[nH]3)nc2c1` [Compound 23, N-[2-(pyrrol-2-yl)-3H-benzimidazol-5-yl]acetamidine dihydrochloride], the IC50 with PGE2 (setting [2]) came to 2 µM; in series [1] (setting [3]), 250 µM.

`Br.CC(=N)Nc1ccc2nc(-c3ccc[nH]3)[nH]c2c1` [Compound 24, N-[2-(pyrrol-2-yl)-3H-benzimidazol-5-yl]acetamidine hydrobromide] returned a melting point of 197 to 199 °C.

As for `COC(=O)c1ccc(-c2nc3cc(NC(C)=N)ccc3[nH]2)cc1` [Compound 25, Methyl 4-(5-acetimidoylamino-1H-benzimidazol-2-yl)benzoate hydrochloride], in the series on PGE2 (setting [6]), the “Inhibition % IC50 PGE2” value is “IN (IN = <25% inhibitory activity at 30 × 10^−6M)”. Also, the IC50 in series [1] (setting [3]) is 174 µM.

In turn, `CC(=N)Nc1ccc2[nH]c(-c3ccc(C(=O)O)cc3)nc2c1` [Compound 26, 4-(5-acetimidoylamino-1H-benzimidazol-2-yl)benzoic acid] showed a melting point of 271.5 to 274.3 °C. In addition, in the series with PGE2 (setting [6]), the “Inhibition % IC50 PGE2” value is on record as “IN (IN = <25% inhibitory activity at 30 × 10^−6M)”.

Take `CC(=N)Nc1ccc2oc(-c3cccc(C(F)(F)F)c3)nc2c1` [Compound 31, N-[2-(3-trifluromethylphenyl)benzoxazol-5-yl]acetamidine]: the melting point was 157.9 to 159.2 °C. In addition, the IC50 in the series with PGE2 (setting [2]) amounted to 2.9 µM. In addition, in series [1] (setting [3]), the IC50 was 11.2 µM.

Turning to `CC(=N)Nc1ccc2[nH]c(-c3cccc(C(F)(F)F)c3)nc2c1` [Compound 36, N-[2-(3-trifluoromethylphenyl)benzimidazole-5-yl]acetamidine hydrobromide], the “Inhibition % IC50 PGE2” value in the series with PGE2 (setting [6]) is recorded as “IN (IN = <25% inhibitory activity at 30 × 10^−6M)”.

As for `CC(=N)Nc1ccc2[nH]c(-c3ccccc3F)nc2c1` [Compound 38, N-[2-(2-fluorophenyl)benzimidazol-5-yl]acetamidine hydrobromide], the “Inhibition % IC50 PGE2” value with PGE2 (setting [6]) is reported as “IN (IN = <25% inhibitory activity at 30 × 10^−6M)”.

Compound `CC(=N)Nc1ccc2sc(-c3ccc[nH]3)nc2c1` [Compound 40, N-[2-(pyrrol-2-yl)benzothiazol-5-yl]acetamidine] showed a melting point of 166.7 to 169.1 °C. In the series on PGE2 (setting [2]), the IC50 came out at 8.4 µM.

Turning to `COc1ccccc1-c1[nH]c2ccc(NC(C)=N)cc2[n+]1C` [Compound 44, N-[1-methyl-2-(2-methoxyphenyl)benzimidazol-6-yl]acetamidine], the melting point was 205.6 to 207.1 °C.

For “N-[2-phenylbenzothiazol-5-yl]cyclopropylcarboxamidine [Compound 41]”, the IC50 with PGE2 (rabbit articular chondrocytes, IL-1β 1 ng/ml, 48 hours, RIA, read-out: Inhibition % IC50 PGE2) worked out at 4 µM. Moreover, in series [1] (rabbit articular chondrocytes, IL-1β 1 ng/ml, 48 hours, nitrite in supernatant), the “Inhibition % IC50 NO” value was “IN (IN = <25% inhibitory activity at 30 × 10^−6M)”.
